Among the data in ChEMBL document CHEMBL4706512, “Design, synthesis and antitumor activity of novel thiophene-pyrimidine derivatives as EGFR inhibitors overcoming T790M and L858R/T790M mutations” (Eur J Med Chem, 2020) are IC50 and inhibition values, retold here.

One test relates to HeLa. In words: Antiproliferative activity against human HeLa cells assessed as inhibition of cell proliferation measured after 72 hrs by MTT assay. Type of test: functional, cell-based.
A further test has as its system MCF7. Briefly: Antiproliferative activity against human MCF7 cells assessed as inhibition of cell proliferation measured after 72 hrs by MTT assay. Type of test: functional, cell-based. The settings on record: MCF7, 72 h.
The next test concerns A549. Briefly: Antiproliferative activity against human A549 cells assessed as inhibition of cell proliferation measured after 72 hrs by MTT assay. The following applies: A549, 72 h. Type of test: functional, cell-based. (Formazan colour is commonly taken as a measure of viable cells.)
The subject of the next test is A-431. In words: Antiproliferative activity against human A-431 cells assessed as inhibition of cell proliferation measured after 72 hrs by MTT assay. Type of test: functional, cell-based. The settings on record: A-431, 72 h.
In another test the test system is L02. Briefly: Cytotoxicity against human L02 cells assessed as inhibition of cell proliferation measured after 72 hrs by MTT assay. The following applies: L02, 72 h. Type of test: cell-based.
Test [1] concerns NCI-H1975. Briefly: Antiproliferative activity against human NCI-H1975 cells harboring EGFR T790M/L858R double mutant assessed as inhibition of cell viability measured after 72 hrs by MTT assay. Type of test: functional, cell-based. The settings on record: NCI-H1975, 72 h.
In test [2] the test system is NCI-H1975. Briefly: Antiproliferative activity against human NCI-H1975 cells harboring EGFR T790M/L858R double mutant assessed as inhibition of cell viability at 1 uM measured after 72 hrs by MTT assay. Type of test: functional.
In test [3] the test system is NCI-H1975. In words: Antiproliferative activity against human NCI-H1975 cells harboring EGFR T790M/L858R double mutant assessed as inhibition of cell viability at 10 uM measured after 72 hrs by MTT assay. Type of test: functional.
Test [4] in a line: Inhibition of EGFR T790M mutant (unknown origin) using FAM-labelled peptide as substrate incubated for 10 mins in presence of ATP measured by mobility shift assay. On the set-up: species or system Homo sapiens.
Test [5] deals with T1, Epidermal growth factor receptor (Homo sapiens, UniProt P00533). In words: Inhibition of wild type EGFR (unknown origin) using FAM-labelled peptide as substrate incubated for 10 mins in presence of ATP measured by mobility shift assay.
T1 sequence (P00533 whole entry): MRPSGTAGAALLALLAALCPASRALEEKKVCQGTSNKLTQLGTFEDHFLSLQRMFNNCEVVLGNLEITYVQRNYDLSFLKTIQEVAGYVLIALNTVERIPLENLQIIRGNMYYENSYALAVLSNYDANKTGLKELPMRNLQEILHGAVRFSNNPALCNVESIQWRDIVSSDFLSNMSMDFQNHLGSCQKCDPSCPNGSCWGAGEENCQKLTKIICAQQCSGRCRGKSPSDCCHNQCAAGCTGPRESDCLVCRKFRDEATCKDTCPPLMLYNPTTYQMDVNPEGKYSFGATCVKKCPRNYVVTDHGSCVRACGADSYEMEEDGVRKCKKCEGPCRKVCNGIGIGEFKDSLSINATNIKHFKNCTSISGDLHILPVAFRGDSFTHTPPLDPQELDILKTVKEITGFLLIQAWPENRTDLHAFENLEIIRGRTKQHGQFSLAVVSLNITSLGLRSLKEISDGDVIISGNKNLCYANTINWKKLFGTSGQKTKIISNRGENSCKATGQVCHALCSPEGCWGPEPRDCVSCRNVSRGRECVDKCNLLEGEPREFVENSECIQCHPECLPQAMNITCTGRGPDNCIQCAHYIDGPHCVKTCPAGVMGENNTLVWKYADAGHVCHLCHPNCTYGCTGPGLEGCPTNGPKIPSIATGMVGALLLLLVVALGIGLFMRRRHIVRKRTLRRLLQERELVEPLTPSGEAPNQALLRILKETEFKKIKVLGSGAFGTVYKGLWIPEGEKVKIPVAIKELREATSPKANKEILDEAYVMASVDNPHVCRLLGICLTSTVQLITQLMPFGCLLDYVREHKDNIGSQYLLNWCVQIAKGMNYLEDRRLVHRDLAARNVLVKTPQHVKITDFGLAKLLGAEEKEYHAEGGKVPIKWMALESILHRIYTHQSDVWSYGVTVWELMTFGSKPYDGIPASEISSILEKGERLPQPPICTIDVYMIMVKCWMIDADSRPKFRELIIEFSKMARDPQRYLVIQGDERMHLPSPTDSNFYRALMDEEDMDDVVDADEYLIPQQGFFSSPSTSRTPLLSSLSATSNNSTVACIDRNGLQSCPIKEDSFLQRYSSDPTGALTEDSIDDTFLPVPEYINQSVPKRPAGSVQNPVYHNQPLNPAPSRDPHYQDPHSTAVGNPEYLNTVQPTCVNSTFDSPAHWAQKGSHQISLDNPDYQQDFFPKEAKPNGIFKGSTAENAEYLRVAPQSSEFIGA
A further test is filed under the species Homo sapiens. In words: Inhibition of EGFR T790M mutant (unknown origin) using FAM-labelled peptide as substrate at 1 uM incubated for 10 mins in presence of ATP measured by mobility shift assay.
Test [6] concerns the target T1, Epidermal growth factor receptor. Briefly: Inhibition of wild type EGFR (unknown origin) using FAM-labelled peptide as substrate at 1 uM incubated for 10 mins in presence of ATP measured by mobility shift assay.

Usually IC50 stands for the midpoint of a concentration-inhibition curve. A word on the inhibition: it is the relative decrease from the control value, in per cent.

Turning to `CC/C=C/C(=O)Nc1cccc(Oc2nc(Nc3ccn(C)n3)nc3ccsc23)c1`, the IC50 in the test on HeLa was 49.4 µM; in the test on MCF7 it was above 50 µM; in the test on A549, 25.6 µM; in the test with A-431, 36.2 µM.
As to `C/C=C/C(=O)Nc1cccc(Oc2nc(Nc3ccn(C)n3)nc3ccsc23)c1`, the concentration for half-maximal inhibition (IC50) was 43.5 µM with HeLa, above 50 µM in the test on MCF7, 29.5 µM in the test with A549 and 33.3 µM with A-431.
`C=C(C)C(=O)Nc1cccc(Oc2nc(Nc3ccn(C)n3)nc3ccsc23)c1`: the half-maximal inhibitory concentration (IC50) in the test on HeLa, with MCF7, in the test with A549 and in the test with A-431 was above 50 µM in each case.
Consider `C=CC(=O)Nc1cc(Nc2nccc(-c3cn(C)c4ccccc34)n2)c(OC)cc1N(C)CCN(C)C` [OSIMERTINIB], for which the IC50 was 1.83 µM with HeLa; 3.67 µM with MCF7; 0.67 µM in the test on A549; […] with A-431; above 50 µM with L02.
In the case of `CC/C=C/C(=O)Nc1cccc(Oc2nc(Nc3cccc(OC)c3)nc3ccsc23)c1`, the concentration for half-maximal inhibition (IC50) in the test with HeLa is 29.4 µM; in the test on MCF7, 43.4 µM; in the test on A549 it was 19.6 µM; in the test on A-431, 29.2 µM; with L02, above 50 µM.
For the compound `COc1ccc(Nc2nc(Oc3cccc(NC(=O)/C=C/C(C)C)c3)c3sccc3n2)cn1`, the 50% inhibitory concentration (IC50) with HeLa, with MCF7, with A549 and in the test on A-431 was above 50 µM throughout.
Consider `CC(C)/C=C/C(=O)Nc1cccc(Oc2nc(Nc3cccc(C#N)c3)nc3ccsc23)c1`, for which the IC50 was 36.5 µM in the test with HeLa; above 50 µM in the test with MCF7; 19 µM in the test with A549; 24.1 µM in the test on A-431; above 50 µM with L02.
On to `CC/C=C/C(=O)Nc1cccc(Oc2nc(Nc3ccc(OC)cc3)nc3ccsc23)c1`, for which the IC50 is 36.1 µM in the test with HeLa; above 50 µM with MCF7; 16.1 µM in the test on A549; 15.1 µM in the test on A-431; above 50 µM in the test with L02.
`COc1ccc(Nc2nc(Oc3cccc(NC(=O)/C=C/C(C)C)c3)c3sccc3n2)cc1`: the half-inhibitory concentration (IC50) is 45.1 µM in the test on HeLa, above 50 µM in the test with MCF7, 37.9 µM in the test on A549 and 25.2 µM with A-431.
For the compound `COc1cccc(Nc2nc(Oc3cccc(NC(=O)C=C(C)C)c3)c3sccc3n2)c1`, the IC50 with HeLa was determined as 26.1 µM; with MCF7, 35.8 µM; with A549 it was 27.7 µM; in the test with A-431, 25.8 µM.
Regarding `C=CC(=O)Nc1cccc(Oc2nc(Nc3ccc(OC)cc3)nc3ccsc23)c1`, the IC50 is 26.1 µM with HeLa; 0.207 µM in the test on NCI-H1975 [1]; 16 µM in the test on MCF7; 8.61 µM with A549; 9.3 µM in the test with A-431; above 50 µM with L02. Besides, the inhibition at 1 µM in the test on NCI-H1975 [2] amounted to 59.1%. In the test on NCI-H1975 [3], the inhibition at 10 µM stood at 83.8%.
With `CCC/C=C/C(=O)Nc1cccc(Oc2nc(Nc3cccc(C#N)c3)nc3ccsc23)c1`, the IC50 with HeLa is 42.1 µM; in the test on MCF7, 49.1 µM; with A549, 16.7 µM; in the test on A-431, 20.4 µM; in the test on L02 it was above 50 µM.
Regarding `CCC/C=C/C(=O)Nc1cccc(Oc2nc(Nc3ccn(C)n3)nc3ccsc23)c1`, the IC50 in the test with HeLa was 32.2 µM; in the test with MCF7 it was 39.1 µM; in the test on A549, 26.3 µM; in the test on A-431, 23.4 µM.
With `C/C=C/C(=O)Nc1cccc(Oc2nc(Nc3cccc(OC)c3)nc3ccsc23)c1`, the IC50 is 20.1 µM with HeLa; 14.6 µM with MCF7; 10.5 µM with A549; 13.1 µM in the test on A-431; 46 µM in the test with L02.
On to `C=CC(=O)Nc1cccc(Oc2nc(Nc3ccc(OC)nc3)nc3ccsc23)c1`, for which the IC50 was 47.1 µM in the test on HeLa; above 50 µM in the test with MCF7; 20.4 µM with A549; 27.8 µM in the test with A-431; above 50 µM in the test on L02.
On to `CC/C=C/C(=O)Nc1cccc(Oc2nc(Nc3cccc(C#N)c3)nc3ccsc23)c1`, for which the IC50 in the test on HeLa is 69.4 µM; with MCF7, above 50 µM; in the test on A549 it was 14.9 µM; with A-431 it was 36.2 µM; with L02, above 50 µM.
Consider `C=C(F)C(=O)Nc1cccc(Oc2nc(Nc3ccn(C)n3)nc3ccsc23)c1`, for which the IC50 in the test on HeLa, in the test with MCF7, in the test on A549 and in the test with A-431 was above 50 µM in each case.
As for `C/C=C/C(=O)Nc1cccc(Oc2nc(Nc3ccc(OC)cc3)nc3ccsc23)c1`, the concentration for half-maximal inhibition (IC50) in the test with HeLa was 45.1 µM; in the test with MCF7, above 50 µM; in the test on A549, 13.7 µM; in the test on A-431, 11.8 µM; in the test on L02 it was above 50 µM.
Regarding `CCC/C=C/C(=O)Nc1cccc(Oc2nc(Nc3cccc(OC)c3)nc3ccsc23)c1`, the IC50 with HeLa was 7.73 µM; with MCF7, 5.02 µM; in test [4], above 1 µM; in the test on A549 it was 5.56 µM; in [5], above 1 µM; in the test with A-431 it was 8.09 µM. For the same compound, the IC50 in the test with L02 was above 50 µM. Also, in the test on NCI-H1975 [2], the inhibition at 1 µM was -0.18%. The inhibition at 10 µM in the test on NCI-H1975 [3] turned out to be 14.6%. For the same compound, the inhibition in the test listed under Homo sapiens came out at 24.5%; in [6], 4%.
Turning to `C/C=C/C(=O)Nc1cccc(Oc2nc(Nc3ccc(OC)nc3)nc3ccsc23)c1`, the IC50 was above 50 µM in the test with HeLa; above 50 µM in the test on MCF7; 31.9 µM with A549; 37.2 µM in the test on A-431; above 50 µM in the test with L02.
For `C=CC(=O)Nc1cccc(Oc2nc(Nc3ccn(C)n3)nc3ccsc23)c1`, the IC50 in the test on HeLa came out at 17.3 µM; in the test on MCF7, 37.6 µM; in the test with A549, 26.5 µM; in the test on A-431, 13.9 µM.
Consider `C/C=C/C(=O)Nc1cccc(Oc2nc(Nc3cccc(C#N)c3)nc3ccsc23)c1`, for which the 50% inhibitory concentration (IC50) with HeLa came out at 23.6 µM; in the test on MCF7, 33.1 µM; in the test with A549, 11.3 µM; in the test on A-431, 20.1 µM; in the test on L02, 47.9 µM.
`CC/C=C/C(=O)Nc1cccc(Oc2nc(Nc3ccc(OC)nc3)nc3ccsc23)c1`: the concentration for half-maximal inhibition (IC50) was 49.9 µM with HeLa; above 50 µM with MCF7; 25.8 µM in the test with A549; 26.2 µM in the test with A-431; above 50 µM in the test on L02.
In the case of `CC(C)/C=C/C(=O)Nc1cccc(Oc2nc(Nc3ccn(C)n3)nc3ccsc23)c1`, the IC50 was 48.8 µM in the test on HeLa, above 50 µM in the test with MCF7, 29.9 µM in the test on A549 and 46.1 µM with A-431.
On to `COc1cccc(Nc2nc(Oc3cccc(NC(=O)/C=C/C(C)C)c3)c3sccc3n2)c1`, for which the IC50 in the test with HeLa amounted to 27 µM; in the test on MCF7, 43.9 µM; in the test on A549, 37.1 µM; in the test on A-431, 23.4 µM.
Regarding `CC(C)=CC(=O)Nc1cccc(Oc2nc(Nc3ccn(C)n3)nc3ccsc23)c1`, the concentration for half-maximal inhibition (IC50) with HeLa was determined as 39.6 µM; with MCF7, 43.9 µM; with A549, 31.9 µM; in the test with A-431 it was 38.9 µM.
In the case of `CCC/C=C/C(=O)Nc1cccc(Oc2nc(Nc3ccc(OC)cc3)nc3ccsc23)c1`, the IC50 was 31.4 µM in the test with HeLa; 2.14 µM in the test on NCI-H1975 [1]; 35 µM in the test on MCF7; above 1 µM in test [4]; 5.21 µM in the test on A549; above 1 µM in test [5]. Further, the IC50 was 4.22 µM with A-431 and above 50 µM in the test with L02. The inhibition at 1 µM with NCI-H1975 [2] was 3.25%. In addition, the inhibition at 10 µM in the test with NCI-H1975 [3] is 94.3%. The inhibition in the test filed under Homo sapiens came out at 21.7%; in test [6], 7.4%.
On to `CCC/C=C/C(=O)Nc1cccc(Oc2nc(Nc3ccc(OC)nc3)nc3ccsc23)c1`, for which the IC50 with HeLa was above 50 µM; in the test on MCF7, above 50 µM; in the test with A549 it was 21.5 µM; in the test with A-431, 30.3 µM; in the test on L02, 41.6 µM.
Regarding `COc1ccc(Nc2nc(Oc3cccc(NC(=O)C=C(C)C)c3)c3sccc3n2)cc1`, the IC50 with HeLa was determined as 28.8 µM; in the test with MCF7, 46.1 µM; with A549, 18.1 µM; in the test on A-431, 17.6 µM; in the test on L02, 48.9 µM.
Turning to `COc1ccc(Nc2nc(Oc3cccc(NC(=O)C=C(C)C)c3)c3sccc3n2)cn1`, the IC50 in the test on HeLa is above 100 µM; with MCF7, above 100 µM; in the test with A549, 40.1 µM; in the test with A-431 it was above 50 µM; in the test with L02 it was 36.9 µM.
With `CC(C)=CC(=O)Nc1cccc(Oc2nc(Nc3cccc(C#N)c3)nc3ccsc23)c1`, the IC50 was 19.8 µM with HeLa; 41.1 µM in the test on MCF7; 16.9 µM with A549; 28.3 µM in the test with A-431; above 50 µM in the test with L02.
